In paper PMC7154053, “Chemical, Metabolic, and Cellular Characterization of a FtsZ Inhibitor Effective Against Burkholderia cenocepacia” (Frontiers in Microbiology, 2020):
≈ marks a conversion by molar mass, not a printed value. Where two headings read alike, the source gives them in different places.

Experiments:
B. cenocepacia J2315 = assay: MIC, 2-fold microdilution, resazurin method; type: cell-based, Burkholderia cenocepacia; settings: for MIC: Burkholderia cenocepacia; for activity compared with C109, in words: SAR statements, against both bacteria and the purified enzyme
Method: (§1) Burkholderia cenocepacia strains, Escherichia coli ATCC 25922, Pseudomonas aeruginosa PAO1, and Staphylococcus aureus ATCC 25923 were grown in Luria-Bertani (LB) medium (Difco), if not differently specified, with shaking at 200 rpm, or on LB agar, at 37°C.
(§2) The microtiter plates were incubated at 37°C for 48 (for B. cenocepacia) or 24 h (for all the other strains) and growth was determined by the resazurin method (Martin et al., [2006]). A solution of resazurin sodium salt (Sigma Aldrich) was prepared at 0.01% in distilled water and filter-sterilized. Thirty microliter of resazurin solution were added to each well after 1 or 2 days of incubation at 37°C, and the microtiters were re-incubated at the same temperature for 4 h. The MIC was defined as the lowest concentration of the drug that prevented a change in color from blue to pink, which indicates bacterial growth.
(§3) Three independent biological replicates were used for each MIC determination.

[1] = molecular target: Burkholderia cenocepacia purified FtsZ protein (Burkholderia cenocepacia, UniProt B4E5Y7); assay: biochemical; type: biochemical; settings: for Inhibition of Bc FtsZ At 100 μM: 100 μM compound; for Inhibition of Bc FtsZ At 100 μM / Inhibits B. cenocepacia FtsZ GTPase at 100µM?: Yes/No; for Inhibits B. cenocepacia FtsZ GTPase at 100µM?: Supplementary Table 1
Method: All the recombinant FtsZ proteins were expressed at 20°C overnight in E. coli BL21(DE3) cells, upon induction with 0.5 mM IPTG, and purified using the same protocol assessed for the wild-type B. cenocepacia FtsZ (Hogan et al., [2018]).
GTPase enzyme activity was determined using a pyruvate kinase/L-lactic dehydrogenase (PK/LDH) spectrophotometric coupled assay (Ingerman and Nunnari, [2005]). The assays were performed at 30°C, in a reaction mixture containing […] Hepes pH 7.5, 5 mM MgCl2, 5 mM KCl, 10 U PK/LDH, 0.25 mM NADH, 0.25 mM PEP, and 5–10 μM FtsZ, and initiated by the addition of 0.5 mM GTP. Alternatively, GTPase activity was determined by measuring the release of phosphate using the malachite green assay (Baykov et al., [1988]).
(1) A[I]=A[0]×(1-[I]/[I]+IC50)
where A[I] is the enzyme activity at inhibitor concentration [I] and A[0] is the enzyme activity without inhibitor.

P. aeruginosa PAO1 = assay: MIC, 2-fold microdilution, resazurin method; type: cell-based; settings: Pseudomonas aeruginosa, PAO1
Method: as §1, §2, §3

E. coli ATCC 25922 = assay: MIC, 2-fold microdilution, resazurin method; type: cell-based; settings: Escherichia coli, ATCC25922
Method: as §1, §2, §3

S. aureus ATCC 25923 = assay: MIC, 2-fold microdilution, resazurin method; type: cell-based, Staphylococcus aureus; settings: for MIC: Staphylococcus aureus, ATCC25923; for spectrum of activity, in words: S. aureus vs Gram-negative species
Method: as §1, §2, §3

[2] = J2315, LB, 48 h, read-out: MIC B. cenocepacia J2315
[3] = J2315, Supplementary Table 1, read-out: MIC (µg/ml) B. cenocepacia J2315
[4] = LB, 24 h, read-out: MIC P. aeruginosa PAO1
[5] = Supplementary Table 1, read-out: MIC (µg/ml) P. aeruginosa PAO1
[6] = LB, 24 h, read-out: MIC E. coli 25922
[7] = Supplementary Table 1, read-out: MIC (µg/ml) E. coli 25922
[8] = LB, 24 h, read-out: MIC S. aureus 25923
[9] = Supplementary Table 1, read-out: MIC (µg/ml) S. aureus 25923

Sequence of Burkholderia cenocepacia purified FtsZ protein (B4E5Y7 entry or part of it): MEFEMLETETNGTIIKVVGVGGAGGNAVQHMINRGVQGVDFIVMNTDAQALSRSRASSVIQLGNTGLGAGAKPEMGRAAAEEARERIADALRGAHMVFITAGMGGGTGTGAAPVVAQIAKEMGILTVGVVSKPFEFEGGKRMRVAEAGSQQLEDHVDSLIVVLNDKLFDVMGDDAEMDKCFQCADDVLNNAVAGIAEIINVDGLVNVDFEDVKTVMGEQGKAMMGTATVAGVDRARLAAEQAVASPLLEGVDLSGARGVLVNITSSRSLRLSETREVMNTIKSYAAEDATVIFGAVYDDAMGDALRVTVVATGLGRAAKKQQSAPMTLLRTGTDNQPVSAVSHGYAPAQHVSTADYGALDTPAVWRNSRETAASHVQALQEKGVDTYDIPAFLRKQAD

Compound | melting point [°C] | MIC (B. cenocepacia J2315; [2]) [µg/mL] | MIC (B. cenocepacia J2315; [3]) [µg/mL] | Inhibition of Bc FtsZ At 100 μM [1] | Inhibits B. cenocepacia FtsZ GTPase at 100µM? [1] | MIC (P. aeruginosa PAO1; [4]) [µg/mL] | MIC (P. aeruginosa PAO1; [5]) [µg/mL] | MIC (E. coli ATCC 25922; [6]) [µg/mL] | MIC (E. coli ATCC 25922; [7]) [µg/mL] | MIC (S. aureus ATCC 25923; [8]) [µg/mL] | MIC (S. aureus ATCC 25923; [9]) [µg/mL] | IC50 [1] [µM] | MIC (B. cenocepacia J2315; J2315, 48 h, read-out: MIC B. cenocepacia J2315) [µg/mL] | MIC (B. cenocepacia J2315; J2315, read-out: MIC (µg/ml) B. cenocepacia J2315) [µg/mL] | spectrum of activity, in words (S. aureus ATCC 25923) | activity compared with C109, in words (B. cenocepacia J2315)
CCCCCSc1ccc2nsnc2c1[N+](=O)[O-] [compound 10726015] | 116 to 118 | > 64 | > 64 | No | No | > 128 | > 128 | > 512 | > 512 | 512 (≈ 1810 µM) | 512 (≈ 1810 µM) |  |  |  |  | 
CN(C)C(=S)Sc1ccc2nsnc2c1[N+](=O)[O-] [compound 10126130] | 137 to 139 | > 128 | > 128 | Yes | Yes | > 128 | > 128 | 512 (≈ 1700 µM) | 512 (≈ 1700 µM) | 32 (≈ 107 µM) | 32 (≈ 107 µM) | 10 |  |  |  | 
N#CSc1cc(-c2ccc([N+](=O)[O-])cc2)c2nsnc2c1[N+](=O)[O-] [compound 11026176] |  |  |  | Yes | Yes | > 128 | > 128 | > 512 | > 512 | 4 (≈ 11.1 µM) | 4 (≈ 11.1 µM) | 17 | > 512 | > 512 | showed activity only against S. aureus | 
O=[N+]([O-])c1c(Sc2ncc[nH]2)ccc2nsnc12 [compound 11726256] | 213 to 215 | 128 (≈ 458 µM) | 256 (≈ 917 µM) |  | Yes | > 256 | > 256 | 128 (≈ 458 µM) | 128 (≈ 458 µM) | 8 (≈ 28.6 µM) | 8 (≈ 28.6 µM) | > 100 |  |  | showed activity only against S. aureus | 
COc1cc(SC#N)c2nsnc2c1[N+](=O)[O-] [compound 11126009] | 143 to 145 | > 128 | > 128 | Yes | Yes | > 128 | > 128 | > 512 | > 512 | 8 (≈ 29.8 µM) | 8 (≈ 29.8 µM) | 4 |  |  | showed activity only against S. aureus | 
CCOC(=O)CCSc1ccc2nsnc2c1[N+](=O)[O-] [compound 10226047] | 89 to 91 | > 512 | > 512 | No | No | > 128 | > 128 | > 512 | > 512 | > 512 | > 512 |  |  |  |  | completely loss of activity
CCOc1cc(SC#N)c2nsnc2c1[N+](=O)[O-] [compound 11026177] | 128 to 129 | > 512 | > 512 | Yes | Yes | 64 (≈ 227 µM) | 64 (≈ 227 µM) | > 512 | > 512 | 4 (≈ 14.2 µM) | 4 (≈ 14.2 µM) | 19 |  |  | showed activity only against S. aureus | 
COC(=O)C(C)Sc1ccc2nsnc2c1[N+](=O)[O-] (stereo not drawn) [compound 11826363] | 161 to 163 | 16 (≈ 53.5 µM) | 16 (≈ 53.5 µM) | Yes | Yes | 256 (≈ 855 µM) | 256 (≈ 855 µM) | 16 (≈ 53.5 µM) | 16 (≈ 53.5 µM) | 64 (≈ 214 µM) | 64 (≈ 214 µM) | 30 |  |  |  | 
CCOC(=O)COc1ccc2nsnc2c1[N+](=O)[O-] [compound 11726041] | 131 to 133 | > 256 | > 256 | No | No |  |  | > 512 | > 512 | > 256 | > 256 |  |  |  |  | completely loss of activity
COC(=O)CSc1c(C)cc2nsnc2c1[N+](=O)[O-] [compound 11926141] | 172 to 174 | > 256 | > 256 | Yes | Yes | > 256 | > 256 | > 256 | > 256 | 32 (≈ 107 µM) | 32 (≈ 107 µM) | 100 |  |  |  | 
O=C(O)CSc1ccc2nsnc2c1[N+](=O)[O-] [compound 11426177] | 215 to 217 | > 128 | > 128 | No | No |  |  | > 512 | > 512 | 256 (≈ 944 µM) | 256 (≈ 944 µM) |  |  |  |  | not active against B. cenocepacia
COC(=O)CSc1cc(SCC(=O)OC)c2nsnc2c1[N+](=O)[O-] [compound 11726258] | 141 to 143 | 256 (≈ 657 µM) | 256 (≈ 657 µM) | Yes | Yes | > 256 | > 256 | > 256 | > 256 | 256 (≈ 657 µM) | 256 (≈ 657 µM) | 15 |  |  |  | 
CCOC(=O)CNc1ccc2nsnc2c1[N+](=O)[O-] [compound 11726042] | 169 to 171 | > 256 | > 256 | No | No |  |  | > 512 | > 512 | > 256 | > 256 |  |  |  |  | completely loss of activity
O=[N+]([O-])c1c(SC(=S)N2CCSCC2)ccc2nsnc12 [compound 11126015] | 140 to 142 | > 128 | > 128 | Yes | Yes | > 128 | > 128 | > 512 | > 512 | 32 (≈ 89.3 µM) | 32 (≈ 89.3 µM) | 36 |  |  | showed activity only against S. aureus | 
COC(=O)CS(=O)(=O)c1ccc2nsnc2c1[N+](=O)[O-] [compound 11826109] | 123 to 125 | 256 (≈ 807 µM) | 256 (≈ 807 µM) | Yes | Yes | > 256 | > 256 | 128 (≈ 403 µM) | 128 (≈ 403 µM) | 16 (≈ 50.4 µM) | 16 (≈ 50.4 µM) | 30 |  |  |  | loss of activity
CCOC(=O)CSc1c(C)cc2nsnc2c1[N+](=O)[O-] [compound 11926142] | 181 to 183 | > 256 | > 256 | Yes | Yes | > 256 | > 256 | > 256 | > 256 | 32 (≈ 102 µM) | 32 (≈ 102 µM) | 100 |  |  |  | 
